For three compounds, Ki and Ki app results are on record in ChEMBL document CHEMBL1136562, “Structure-activity relationships of substituted benzothiophene-anthranilamide factor Xa inhibitors” (Bioorg Med Chem Lett, 2003).

Structures are written as SMILES.

One experiment addresses Coagulation factor X (Homo sapiens, UniProt P00742). The experiment can be described thus: Inhibition constant against human factor Xa. Particulars: read-out: Ki app.
The target in another experiment is Prothrombin (Homo sapiens, UniProt P00734). The experiment in a line: Inhibition constant against human thrombin. The following applies: read-out: Ki app.
Experiment [1] addresses Cationic trypsin (Bos taurus). The experiment in a line: Inhibition constant against bovine trypsin.

Chain of Coagulation factor X (P00742 41-179 limits assumed): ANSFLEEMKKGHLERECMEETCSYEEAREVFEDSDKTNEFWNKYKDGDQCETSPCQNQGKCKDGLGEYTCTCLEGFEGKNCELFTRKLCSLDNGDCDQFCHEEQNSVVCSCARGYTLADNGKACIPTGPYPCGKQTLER
Chain of Coagulation factor X (P00742 235-488 limits assumed): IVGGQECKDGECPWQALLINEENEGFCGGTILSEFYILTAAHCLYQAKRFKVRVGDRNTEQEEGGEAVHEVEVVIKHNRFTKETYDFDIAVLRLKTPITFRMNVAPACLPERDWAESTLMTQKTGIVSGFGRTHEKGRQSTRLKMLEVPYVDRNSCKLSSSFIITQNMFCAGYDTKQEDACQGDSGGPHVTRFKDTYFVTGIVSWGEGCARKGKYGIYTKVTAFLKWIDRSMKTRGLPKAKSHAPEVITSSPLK

Consider `O=C(Nc1ccc(Cl)cc1)c1cc(O)ccc1NC(=O)c1sc2ccccc2c1Cl`, for which the Ki at Coagulation factor X was 0.073 µM; at Prothrombin, above 5 µM. In addition, in experiment [1], the Ki app is above 5 µM.

As to `O=C(Nc1ccc(Cl)cc1)c1ccccc1NC(=O)c1sc2ccccc2c1Cl`, the figures for the Ki on Coagulation factor X and on Prothrombin were 0.007 µM and above 5 µM, respectively. The Ki app in experiment [1] was above 5 µM.

In the case of `Cc1ccc(NC(=O)c2sc3ccccc3c2Cl)c(C(=O)Nc2nccs2)c1`, the Ki at Coagulation factor X and on Prothrombin was above 5 µM throughout. Besides, the Ki app in experiment [1] was above 5 µM.
